Experimental data: patent publication US10975080B2, “Compounds and compositions for inhibiting the activity of SHP2” (NOVARTIS AG, priority 2015, dated 2021)

target: SHP2 (Homo sapiens (Human), UniProt Q06124); assay: SHP2 Allosteric Inhibition Assay; assay type: biochemical; conditions: 0.5 nM SHP2 with 0.5 μM peptide IRS1_pY1172(dPEG8)pY1222; surrogate substrate DiFMUP; 25° C.; read-out: IC50
Excerpt: SHP2 Allosteric Inhibition Assay
SHP2 is allosterically activated through binding of bis-tyrosyl-phosphorylated peptides to its Src Homology 2 (SH2) domains. The latter activation step leads to the release of the auto-inhibitory interface of SHP2, which in turn renders the SHP2 protein tyrosine phosphatase (PTP) active and available for substrate recognition and reaction catalysis. The catalytic activity of SHP2 was monitored using the surrogate substrate DiFMUP in a prompt fluorescence assay format.
After 30-60 minutes incubation at 25° C., the surrogate substrate DiFMUP (Invitrogen, cat #D6567) was added to the reaction and incubated at 25° C. for 30 minutes. […] The inhibitor dose response curves were analyzed using normalized IC50 regression curve fitting with control based normalization.

IC50 [nM]	SMILES
25.5	Cn1c(N2CCC3(CCC[C@H]3N)CC2)nc2n[nH]c(-c3cccc(Cl)c3Cl)c2c1=O [Example 2, (R)-6-(1-amino-8-azaspiro[4.5]decan-8-yl)-3-(2,3-dichlorophenyl)-5-methyl-2H-pyrazolo[3,4-d]pyrimidin-4(5H)-one]
62	CC1(CN)CCN(c2nc3[nH]cc(-c4cccc(Cl)c4Cl)c3c(=O)[nH]2)CC1 [Example 3, 2-(4-(aminomethyl)-4-methylpiperidin-1-yl)-5-(2,3-dichlorophenyl)-3,7-dihydro-4H-pyrrolo[2,3-d]pyrimidin-4-one]
100	Cn1c(N2CCC(C)(CN)CC2)nc2[nH]cc(-c3cccc(Cl)c3Cl)c2c1=O [Example 5, 2-(4-(aminomethyl)-4-methylpiperidin-1-yl)-5-(2,3-dichlorophenyl)-3-methyl-3H-pyrrolo[2,3-d]pyrimidin-4(7H)-one]
380	C[C@@H]1OCC2(CCN(c3nc4[nH]nc(-c5cc(N)nc(Cl)c5Cl)c4c(=O)n3C)CC2)[C@@H]1N [Example 6, 3-(6-amino-2,3-dichloropyridin-4-yl)-6-((3S,4S)-4-amino-3-methyl-2-oxa-8-azaspiro[4.5]decan-8-yl)-5-methyl-1,5-dihydro-4H-pyrazolo[3,4-d]pyrimidin-4-one]
34	CC(C)Nc1nccc(-c2n[nH]c3nc(N4CCC5(CC4)CO[C@@H](C)[C@H]5N)n(C)c(=O)c23)c1Cl [Example 7, 6-((3S,4S)-4-amino-3-methyl-2-oxa-8-azaspiro[4.5]decan-8-yl)-3-(3-chloro-2-(isopropylamino)pyridin-4-yl)-5-methyl-1,5-dihydro-4H-pyrazolo[3,4-d]pyrimidin-4-one]
36	C[C@@H]1OCC2(CCN(c3nc4[nH]nc(-c5ccnc(N)c5Cl)c4c(=O)n3C)CC2)[C@@H]1N [Example 8, 3-(2-amino-3-chloropyridin-4-yl)-6-((3S,4S)-4-amino-3-methyl-2-oxa-8-azaspiro[4.5]decan-8-yl)-5-methyl-2,5-dihydro-4H-pyrazolo[3,4-d]pyrimidin-4-one]
26	COc1nccc(-c2c[nH]c3nc(N4CCC5(CC4)CO[C@@H](C)[C@H]5N)n(C)c(=O)c23)c1Cl [Example 9, 2-((3S,4S)-4-amino-3-methyl-2-oxa-8-azaspiro[4.5]decan-8-yl)-5-(3-chloro-2-methoxypyridin-4-yl)-3-methyl-3,7-dihydro-4H-pyrrolo[2,3-d]pyrimidin-4-one]
26	COc1nccc(-c2c[nH]c3nc(N4CCC5(CC4)CO[C@@H](C)[C@H]5N)[nH]c(=O)c23)c1Cl [Example 10, 2-((3S,4S)-4-amino-3-methyl-2-oxa-8-azaspiro[4.5]decan-8-yl)-5-(3-chloro-2-methoxypyridin-4-yl)-3H-pyrrolo[2,3-d]pyrimidin-4(7H)-one]
86	CC1(CN)CCN(c2cc3[nH]cc(-c4cccc(Cl)c4Cl)c3c(=O)[nH]2)CC1 [Example 11, 6-(4-(aminomethyl)-4-methylpiperidin-1-yl)-3-(2,3-dichlorophenyl)-1,5-dihydro-4H-pyrrolo[3,2-c]pyridin-4-one]
39	C[C@@H]1OCC2(CCN(c3cnc4c(-c5cccc(Cl)c5Cl)c[nH]c4n3)CC2)[C@@H]1N [Example 12, (3S,4S)-8-(7-(2,3-dichlorophenyl)-5H-pyrrolo[2,3-b]pyrazin-3-yl)-3-methyl-2-oxa-8-azaspiro[4.5]decan-4-amine]
27	C[C@@H]1OCC2(CCN(c3nc4[nH]nc(Sc5ccnc(N)c5Cl)c4c(=O)n3C)CC2)[C@@H]1N [Example 13, 3-((2-Amino-3-chloropyridin-4-yl)thio)-6-((3S,4S)-4-amino-3-methyl-2-oxa-8-azaspiro[4.5]decan-8-yl)-5-methyl-1,5-dihydro-4H-pyrazolo[3,4-d]pyrimidin-4-one]

same assay, conditions: 0.5 nM SHP2 with 0.5 μM peptide IRS1_pY1172(dPEG8)pY1222; surrogate substrate DiFMUP; 25° C.; read-out: SHP2 IC50

IC50 [nM]	SMILES
44	Cn1c(N2CCC3(CC[C@@H]3N)CC2)nc2[nH]nc(-c3cccc(Cl)c3Cl)c2c1=O [Example 17, (S)-6-(1-amino-7-azaspiro[3.5]nonan-7-yl)-3-(2,3-dichlorophenyl)-5-methyl-1,5-dihydro-4H-pyrazolo[3,4-d]pyrimidin-4-one]
50	Cn1c(N2CCC3(CC2)COC[C@H]3N)nc2[nH]nc(-c3cccc(Cl)c3Cl)c2c1=O [Example 20, (S)-6-(4-amino-2-oxa-8-azaspiro[4.5]decan-8-yl)-3-(2,3-dichlorophenyl)-5-methyl-1,5-dihydro-4H-pyrazolo[3,4-d]pyrimidin-4-one]
54	Cn1c(N2CCC3(CC2)COC[C@H]3N)nc2[nH]nc(-c3ccnc(Cl)c3Cl)c2c1=O [Example 21, (S)-6-(4-amino-2-oxa-8-azaspiro[4.5]decan-8-yl)-3-(2,3-dichloropyridin-4-yl)-5-methyl-1,5-dihydro-4H-pyrazolo[3,4-d]pyrimidin-4-one]
57	Cn1c(N2CCC3(CCC[C@H]3N)CC2)nc2[nH]nc(-c3ccnc(Cl)c3Cl)c2c1=O [Example 22, (R)-6-(1-amino-8-azaspiro[4.5]decan-8-yl)-3-(2,3-dichloropyridin-4-yl)-5-methyl-1,5-dihydro-4H-pyrazolo[3,4-d]pyrimidin-4-one]
64	Cn1c(N2CCC3(CC2)COC[C@H]3N)nc2[nH]nc(-c3ccnc(N)c3Cl)c2c1=O [Example 23, (S)-3-(2-amino-3-chloropyridin-4-yl)-6-(4-amino-2-oxa-8-azaspiro[4.5]decan-8-yl)-5-methyl-1,5-dihydro-4H-pyrazolo[3,4-d]pyrimidin-4-one]
72	Cn1c(N2CCC3(CCCCC3N)CC2)nc2[nH]nc(-c3cccc(Cl)c3Cl)c2c1=O (stereo not shown) [Example 24, 6-(7-amino-3-azaspiro[5.5]undecan-3-yl)-3-(2,3-dichlorophenyl)-5-methyl-1,5-dihydro-4H-pyrazolo[3,4-d]pyrimidin-4-one]

The next lines start with the molecule.

SMILES	IC50 [nM]
Cn1c(N2CCC3(CCC[C@H]3N)CC2)nc2[nH]nc(-c3ccnc(N)c3Cl)c2c1=O [Example 16, (R)-3-(2-amino-3-chloropyridin-4-yl)-6-(1-amino-8-azaspiro[4.5]decan-8-yl)-5-methyl-1,5-dihydro-4H-pyrazolo[3,4-d]pyrimidin-4-one]	360
COc1nccc(-c2n[nH]c3nc(N4CCC5(CC4)CO[C@@H](C)[C@H]5N)n(C)c(=O)c23)c1Cl [Example 18, 6-((3S,4S)-4-amino-3-methyl-2-oxa-8-azaspiro[4.5]decan-8-yl)-3-(3-chloro-2-methoxypyridin-4-yl)-5-methyl-1,5-dihydro-4H-pyrazolo[3,4-d]pyrimidin-4-one]	43
Cn1c(N2CCC3(CCC[C@H]3N)CC2)nc2[nH]nc(-c3ccccc3)c2c1=O [Example 19, (R)-6-(1-amino-8-azaspiro[4.5]decan-8-yl)-5-methyl-3-phenyl-1,5-dihydro-4H-pyrazolo[3,4-d]pyrimidin-4-one]	46
Cn1c(N2CCC(C)(CN)CC2)nc2[nH]nc(-c3ccnc(Cl)c3Cl)c2c1=O [Example 25, 6-(4-(aminomethyl)-4-methylpiperidin-1-yl)-3-(2,3-dichloropyridin-4-yl)-5-methyl-1,5-dihydro-4H-pyrazolo[3,4-d]pyrimidin-4-one]	100
Cn1c(N2CCC(C)(CN)CC2)nc2[nH]nc(-c3cccc(C(F)(F)F)c3Cl)c2c1=O [Example 26, 6-(4-(aminomethyl)-4-methylpiperidin-1-yl)-3-(2-chloro-3-(trifluoromethyl)phenyl)-5-methyl-1,5-dihydro-4H-pyrazolo[3,4-d]pyrimidin-4-one]	127
